Assay results as given in patent US10138255B2, “Piperazine derivatives as HIV protease inhibitors” (Merck Sharp & Dohme Corp., priority 2014, dated 2018).

These compounds were tested on HIV-1 (H9IIIB strain) (assay: Cell-Based HIV Infection Assay Using a Reporter (MT4-GFP cells)). Conditions: Human immunodeficiency virus 1, inflection point (IP) of viral growth inhibition; MT4-GFP cells infected with HIV-1 H9IIIB; 50% normal human serum; mean of at least two independent experiments; read-out: Cell Based IP (50% NHS).
How it was run: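 MT4-GFP cells (HIV LTR-driven GFP) bulk-infected with HIV-1 H9IIIB at low MOI for 24 h, washed, then exposed to compounds in RPMI plus 50% normal human serum, 0.4% DMSO. Infected cells counted at 24 and 48 h; R0 = 48 h/24 h ratio, inhibition normalised to DMSO and triple-drug control; IP from 4-parameter fit.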

`N[C@H](C(=O)Nc1cccc(F)c1CCC1CNC2CCCS(=O)(=O)N1C2)[C@@H](c1ccc(Cl)cc1)C1CCC(F)(F)CC1` (stereo partly drawn) [Example 53, (βR)-4-chloro-β-(4,4-difluorocyclohexyl)-N-{2-[2-(2,2-dioxido-2-thia-1,7-diazabicyclo[4.3.1]dec-9-yl)ethyl]-3-fluorophenyl}-L-phenylalaninamide] and `N[C@H](C(=O)Nc1cccc(F)c1CCC1CNC2CCCS(=O)(=O)N1C2)[C@@H](c1ccc(F)cc1)c1cccc(C2CC2)c1` (stereo partly drawn) [Example 51, (βS)-3-cyclopropyl-N-{2-[2-(2,2-dioxido-2-thia-1,7-diazabicyclo[4.3.1]dec-9-yl)ethyl]-3-fluorophenyl}-β-(4-fluorophenyl)-L-phenylalaninamide] are within 1.5-fold of each other in EC50: 24 nM for the first, 20 nM for the second.

Compared with `COC(=O)N[C@H](C(=O)N[C@H]1CCCC[C@@H]1CC[C@H]1CN[C@@H]2CCCS(=O)(=O)N1C2)C(c1ccc(F)cc1)c1ccc(F)cc1` [Example 92, methyl [(1S)-1-[bis(4-fluorophenyl)methyl]-2-{[(1S,2R)-2-{2-[(6R,9S)-2,2-dioxido-2-thia-1,7-diazabicyclo[4.3.1]dec-9-yl]ethyl}cyclohexyl]amino}-2-oxoethyl]carbamate], `COC(=O)N[C@H](C(=O)Nc1cncc(F)c1CC[C@H]1CN[C@@H]2CCCS(=O)(=O)N1C2)[C@@H](c1ccc(F)cc1)C1CCOCC1` [Example 178, methyl {(1S)-2-[(4-{2-[(6R,9S)-2,2-dioxido-2-thia-1,7-diazabicyclo[4.3.1]dec-9-yl]ethyl}-5-fluoropyridin-3-yl)amino]-1-[(R)-(4-fluorophenyl)(tetrahydro-2H-pyran-4-yl)methyl]-2-oxoethyl}carbamate] is 2.9-fold higher in EC50: 56 nM for the first, 160 nM for the second.

Going from `COC(=O)N[C@H](C(=O)Nc1c(F)ccc(F)c1CC[C@H]1CN[C@@H]2CCCS(=O)(=O)N1C2)[C@@H](c1ccc(Cl)cc1)C1CCOCC1` [Example 32, Methyl [(1S,2R)-2-(4-chlorophenyl)-1-[(2-{2-[(6R,9S)-2,2-dioxido-2-thia-1,7-diazabicyclo[4.3.1]dec-9-yl]ethyl}-3,6-difluorophenyl)carbamoyl]-2-(tetrahydro-2H-pyran-4-yl)ethyl]carbamate] to `COC(=O)N[C@H](C(=O)Nc1cccc(F)c1CC[C@H]1CN[C@@H]2CCC(C)S(=O)(=O)N1C2)[C@@H](c1ccc(F)cc1)C1C[C@@H](C)O[C@@H](C)C1` (stereo partly drawn) [Example 109, methyl [(1S,2R)-2-[(2R,6S)-2,6-dimethyltetrahydro-2H-pyran-4-yl]-1-[(3-fluoro-2-{2-[(6R,9S)-3-methyl-2,2-dioxido-2-thia-1,7-diazabicyclo[4.3.1]dec-9-yl]ethyl}phenyl)carbamoyl]-2-(4-fluorophenyl)ethyl]carbamate], the EC50 rises from 20 nM to 38 nM (1.9-fold). The first is the more potent here.

`CC1(C)CC([C@H](c2ccc(Cl)cc2)[C@H](NC(=O)C(C)(C)N)C(=O)N[C@H]2CCC[C@@H]2CC[C@H]2CN[C@@H]3CCCS(=O)(=O)N2C3)CCO1` (stereo partly drawn) [Example 237, 2-methylalanyl-(βR)-4-chloro-β-(2,2-dimethyltetrahydro-2H-pyran-4-yl)-N-[(1S,2R)-2-{2-[(6R,9S)-2,2-dioxido-2-thia-1,7-diazabicyclo[4.3.1]dec-9-yl]ethyl}cyclopentyl]-L-phenylalaninamide] and `N[C@H](C(=O)Nc1cccc(F)c1OCC1CNC2CCCS(=O)(=O)N1C2)[C@@H](c1ccc(F)cc1)c1cc(F)cc(F)c1` (stereo partly drawn) [Example 84, (βS)-β-(3,5-difluorophenyl)-N-{2-[(2,2-dioxido-2-thia-1,7-diazabicyclo[4.3.1]dec-9-yl)methoxy]-3-fluorophenyl}-4-fluoro-L-phenylalaninamide] are within 1.5-fold of each other in EC50: 150 nM for the first, 210 nM for the second.

Same assay, conditions: inflection point (IP) of viral growth inhibition; MT4-GFP cells infected with HIV-1 H9IIIB; 50% normal human serum; mean of at least two independent experiments; read-out: Cell Based IP (50% NHS)

`COC(=O)N[C@H](C(=O)Nc1cccc(F)c1CC[C@H]1CN[C@@H]2CCCS(=O)(=O)N1C2)[C@@H](c1ccc(Cl)cc1)C1C[C@@H](C)O[C@@H](C)C1` (stereo partly drawn) [Example 120, methyl {(1S,2R)-2-(4-chlorophenyl)-2-[(2R,4r,6S)-2,6-dimethyltetrahydro-2H-pyran-4-yl]-1-[(2-{2-[(6R,9S)-2,2-dioxido-2-thia-1,7-diazabicyclo[4.3.1]dec-9-yl]ethyl}-3-fluorophenyl)carbamoyl]ethyl}carbamate] gave an EC50 of 6.2 nM.
